Patent publication US6455567B1, “Method of treatment” (Pfizer Inc., priority 1994, dated 2002)

Columns and labels:
[1] = system: oedema in the rat hind paw; conditions: intravenous, saphenous nerve stimulation; cited from earlier work
[2] = system: neurogenic inflammation in dura mater; conditions: in vivo; cited from earlier work
[3] = system: vasodilation in the rat hind paw; experiment: Vasodilation (skin blood flow) in the rat hind paw after saphenous nerve stimulation, method of Kajekar et al; type: in vivo; conditions: intravenous
Procedure: The test compound is administered intravenously at different doses and the results are recorded as the change in the increase in skin blood flow.

Structure (SMILES) | lowest administered amount with significant effect on ratio of plasma extravasation in the stimulated/unstimulated hind paw [1] [mol/kg] | potency against neurogenic inflammation in dura mater [2] | lowest dose with significant effect on the increase in skin blood flow (vasodilation) [3] [mol/kg]
CNS(=O)(=O)Cc1ccc2[nH]cc(C[C@H]3CCCN3C)c2c1 [CP-122,288, (R)-5-(methylaminosulphonylmethyl)-3-(N-methylpyrrolidin-2-ylmethyl)-1H-indole] | 2e-14 | exhibit potency against neurogenic inflammation | 2e-12
CNS(=O)(=O)Cc1ccc2[nH]cc(C[C@H]3CCCN3)c2c1 [CP-122,638, (R)-5-(methylaminosulphonylmethyl)-3-(pyrrolidin-2-ylmethyl)-1H-indole] | – | exhibit potency against neurogenic inflammation | –
